Here are results for 15 compounds from patent US7691836B2, “Progesterone receptor modulators” (N.V. Organon, priority 2004, dated 2010).

Assay [1] concerns the target T1, progesterone receptor-B (Homo sapiens, UniProt P06401).
T1 sequence (P06401 1-933): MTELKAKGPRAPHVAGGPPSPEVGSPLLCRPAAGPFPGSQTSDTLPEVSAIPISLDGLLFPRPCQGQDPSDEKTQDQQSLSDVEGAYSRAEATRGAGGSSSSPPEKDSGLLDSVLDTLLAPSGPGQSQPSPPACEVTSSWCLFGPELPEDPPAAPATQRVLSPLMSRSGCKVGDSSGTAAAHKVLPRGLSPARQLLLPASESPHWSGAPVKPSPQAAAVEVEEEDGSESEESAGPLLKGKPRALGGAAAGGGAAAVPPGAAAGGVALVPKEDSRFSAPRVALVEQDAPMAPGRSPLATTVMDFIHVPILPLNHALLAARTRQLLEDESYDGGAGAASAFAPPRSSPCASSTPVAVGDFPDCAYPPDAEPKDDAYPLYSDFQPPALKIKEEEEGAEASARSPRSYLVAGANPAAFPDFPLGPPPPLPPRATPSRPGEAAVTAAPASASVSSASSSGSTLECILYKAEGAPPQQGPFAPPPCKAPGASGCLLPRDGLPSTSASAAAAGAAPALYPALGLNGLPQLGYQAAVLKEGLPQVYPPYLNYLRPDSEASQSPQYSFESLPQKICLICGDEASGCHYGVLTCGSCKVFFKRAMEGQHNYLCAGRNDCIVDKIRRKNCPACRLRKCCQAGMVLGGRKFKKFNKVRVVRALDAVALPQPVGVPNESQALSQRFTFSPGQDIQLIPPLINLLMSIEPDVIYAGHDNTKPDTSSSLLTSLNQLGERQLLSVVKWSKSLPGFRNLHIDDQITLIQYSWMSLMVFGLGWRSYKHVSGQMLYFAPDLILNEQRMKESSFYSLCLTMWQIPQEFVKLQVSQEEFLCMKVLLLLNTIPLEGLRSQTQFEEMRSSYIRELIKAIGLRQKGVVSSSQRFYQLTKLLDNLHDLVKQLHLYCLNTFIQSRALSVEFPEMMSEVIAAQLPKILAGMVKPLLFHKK
As to the kind of experiment: Progesterone receptor-B transactivation, agonistic mode (CHO cells, luciferase). Format: cell-based. The settings on record: for EC50: CHO cells, agonistic mode, read-out: PRBagoEC50; for Emax: CHO, read-out: PRBago Eff (%). The text has this: For selecting compounds of the subject invention with a mixed modulating effect on the progesterone receptor, testing in the agonistic mode must result in an intrinsic activity of between about 15% and about 85% of the maximal activity when (16α)-16-ethyl-21-hydroxy-19-norpregn-4-ene-3,20-dione is used as a reference. Moreover, this maximal agonistic activity should be reached at a concentration of 10^−6 or less, and preferably at a concentration of 10^−8 or less.
(§1) The progestagenic activity of a compound of the invention (EC50 and intrinsic agonistic activity) was determined in an in vitro bioassay of Chinese hamster ovary (CHO) cells as described by W. G. E. J. Schoonen et al. (Anal. Biochem. 261 (1998), 222-224). […] The efficacy of the antagonistic effect was expressed as the percentage of the effect produced by a standard antagonist, (6β,11β,17β)-11-[4-(dimethylamino)phenyl]-4′,5′-dihydro-6-methylspiro[estra-4,9-diene-17,2′(3′H)-furan]-3-one.
(§2) It will be recognized by those skilled in the art that, in the setting described above, the EC50 determined is more or less absolute and depends on the intrinsic property of the tested compound itself, however, the IC50 depends on the amount and agonistic EC50 of the inducer as well as on the intrinsic property of the tested compound itself. Thus, with the same amount of inducer, a relatively strong antagonist will be able to produce a measurable IC50 whereas a relatively weak antagonist may fail to produce a detectable result.

Assay [2] concerns the target T1, progesterone receptor-B. As to the kind of experiment: Progesterone receptor-B transactivation, antagonistic mode (inhibition of luciferase transactivation by inducer, CHO cells). Format: cell-based. The note with it: for Emax: CHO, read-out: PRBant Eff (%); for EC50: in the presence of 0.1 nM inducer (16α)-16-ethyl-21-hydroxy-19-norpregn-4-ene-3,20-dione, read-out: PRBant EC50. The protocol: In the antagonistic mode, testing must result in an intrinsic activity of between about 85% and about 15% of the maximal activity when (6β,11β,17β)-11-[4-(dimethylamino)phenyl]-4′,5′-dihydro-6-methylspiro[estra-4,9-diene-17,2′(3′H)-furan]-3-one is used as a reference.
as §1, §2

The mark [3] stands for this setting: intrinsic agonistic activity, relative to reference (16α)-16-ethyl-21-hydroxy-19-norpregn-4-ene-3,20-dione.
The mark [4] stands for this setting: intrinsic antagonistic activity, percentage of effect of standard antagonist (6β,11β,17β)-11-[4-(dimethylamino)phenyl]-4′,5′-dihydro-6-methylspiro[estra-4,9-diene-17,2′(3′H)-furan]-3-one, 0.1 nM inducer.

With `C[C@@H]1C[C@H]2[C@@H]3CCC4=CC(=O)CCC4=C3[C@@H](c3ccc(-c4cccnc4)cc3)C[C@]2(C)[C@H]1C(=O)C1CC1` [Example 1, (11β,16α,17β)-17-cyclopropylcarbonyl-16-methyl-11-[4-(3-pyridinyl)-phenyl]estra-4,9-dien-3-one], the figures for the EC50 at progesterone receptor-B [1] and at progesterone receptor-B [2] were 0.2 nM and 0.267 nM, respectively. Also, the values for the Emax at progesterone receptor-B [1] (setting [3]) and at progesterone receptor-B [2] (setting [4]) were 49.2% and 46.4%, respectively.

`C[C@@H]1C[C@H]2[C@@H]3CCC4=CC(=O)CCC4=C3[C@@H](c3ccc(-c4cccnc4)cc3)C[C@]2(C)[C@H]1C(=O)C1CC1.Cl` [Example 2, (11β,16α,17β)-17-cyclopropylcarbonyl-16-methyl-11-[4-(3-pyridinyl)-phenyl]estra-4,9-dien-3-one hydrochloride]: the EC50 was found to be 0.34 nM on progesterone receptor-B [1] and 3.3 nM on progesterone receptor-B [2]. For the same compound, the “PRBago Eff (%)” value on progesterone receptor-B [1] (setting [3]) amounted to 44.5%. The “PRBant Eff (%)” value at progesterone receptor-B [2] (setting [4]) amounted to 47%.

Turning to `COc1ccc(-c2ccc([C@H]3C[C@@]4(C)[C@@H](C[C@@H](C)[C@@H]4C(=O)C4CC4)[C@@H]4CCC5=CC(=O)CCC5=C43)cc2)cn1` [Example 3, (11β,16α,17β)-17-cyclopropylcarbonyl-11-[4-(6-methoxypyridin-3-yl)phenyl]-16-methylestra 4,9-dien-3-one], the EC50 stood at 0.12 nM on progesterone receptor-B [1] and 0.628 nM at progesterone receptor-B [2]. Further, the Emax on progesterone receptor-B [1] (setting [3]) was determined as 41.5%; at progesterone receptor-B [2] (setting [4]), 59%.

Consider `C[C@@H]1C[C@H]2[C@@H]3CCC4=CC(=O)CCC4=C3[C@@H](c3ccc(-c4ccc(Cl)nc4)cc3)C[C@]2(C)[C@H]1C(=O)C1CC1` [Example 4, (11β,16α,17β)-11-[4-(6-chloropyridin-3-yl)phenyl]-17-cyclopropyl-carbonyl-16-methylestra-4,9-dien-3-one], for which the EC50 at progesterone receptor-B [1] is 1.1 nM; on progesterone receptor-B [2], 0.47 nM. The Emax at progesterone receptor-B [1] (setting [3]) was 46.5%; at progesterone receptor-B [2] (setting [4]), 43%.

In the case of `C[C@@H]1C[C@H]2[C@@H]3CCC4=CC(=O)CCC4=C3[C@@H](c3ccc(-c4ccc(F)nc4)cc3)C[C@]2(C)[C@H]1C(=O)C1CC1` [Example 5, (11β,16α,17β)-17-cyclopropylcarbonyl-11-[4-(6-fluoropyridin-3-yl)phenyl]-16-methylestra-4,9-dien-3-one], the EC50 at progesterone receptor-B [1] was 0.49 nM; on progesterone receptor-B [2], 8.48 nM. Further, the Emax is 50.5% at progesterone receptor-B [1] (setting [3]) and 50% at progesterone receptor-B [2] (setting [4]).

For `COc1cncc(-c2ccc([C@H]3C[C@@]4(C)[C@@H](C[C@@H](C)[C@@H]4C(=O)C4CC4)[C@@H]4CCC5=CC(=O)CCC5=C43)cc2)c1` [Example 6, (11β,16α,17β)-17-cyclopropylcarbonyl-16-methyl-11-[4-(5-methoxy-pyridin-3-yl)phenyl]estra-4,9-dien-3-one], the EC50 on progesterone receptor-B [1] amounted to 1.3 nM; at progesterone receptor-B [2], 28 nM. For the same compound, the Emax amounted to 54% on progesterone receptor-B [1] (setting [3]) and 34% at progesterone receptor-B [2] (setting [4]).

For `C[C@@H]1C[C@H]2[C@@H]3CCC4=CC(=O)CCC4=C3[C@@H](c3ccc(-c4cnc5ccccc5c4)cc3)C[C@]2(C)[C@H]1C(=O)C1CC1` [Example 7, (11β,16α,17β)-17-cyclopropylcarbonyl-16-methyl-11-[4-(3-quinolidinyl)phenyl]estra-4,9-dien-3-one], the values for the EC50 on progesterone receptor-B [1] and at progesterone receptor-B [2] were 1 nM and 3.14 nM, respectively. Further, the Emax on progesterone receptor-B [1] (setting [3]) is 50%; at progesterone receptor-B [2] (setting [4]) it was 24%.

Take `C[C@@H]1C[C@H]2[C@@H]3CCC4=CC(=O)CCC4=C3[C@@H](c3ccc(-c4ccnnc4)cc3)C[C@]2(C)[C@H]1C(=O)C1CC1` [Example 8, (11β,16α,17β)-17-cyclopropylcarbonyl-16-methyl-11-[4-(4-pyridazinyl)phenyl]estra-4,9-dien-3-one]: the EC50 on progesterone receptor-B [1] is 0.36 nM; at progesterone receptor-B [2] it was 3.64 nM. Further, the Emax is 50.5% at progesterone receptor-B [1] (setting [3]) and 37% at progesterone receptor-B [2] (setting [4]).

With `C[C@@H]1C[C@H]2[C@@H]3CCC4=CC(=O)CCC4=C3[C@@H](c3ccc(-c4cnccn4)cc3)C[C@]2(C)[C@H]1C(=O)C1CC1` [Example 9, (11β,16α,17β)-17-cyclopropylcarbonyl-16-methyl-11-[4-(pyrazin-2-yl)phenyl]estra-4,9-dien-3-one], the figures for the EC50 at progesterone receptor-B [1] and on progesterone receptor-B [2] were 1.13 nM and 1.3 nM, respectively. The Emax at progesterone receptor-B [1] (setting [3]) stood at 54%; at progesterone receptor-B [2] (setting [4]), 35%.

For the compound `C[C@@H]1C[C@H]2[C@@H]3CCC4=CC(=O)CCC4=C3[C@@H](c3ccc(-c4ccccn4)cc3)C[C@]2(C)[C@H]1C(=O)C1CC1` [Example 10, (11β,16α,17β)-17-cyclopropylcarbonyl-16-methyl-11-[4-(2-pyridinyl)phenyl]estra-4,9-dien-3-one], the EC50 on progesterone receptor-B [1] turned out to be 2.6 nM; on progesterone receptor-B [2], 14.8 nM. Moreover, the Emax on progesterone receptor-B [1] (setting [3]) was determined as 49.2%; at progesterone receptor-B [2] (setting [4]), 32.5%.

With `Cc1ccc(-c2ccc([C@H]3C[C@@]4(C)[C@@H](C[C@@H](C)[C@@H]4C(=O)C4CC4)[C@@H]4CCC5=CC(=O)CCC5=C43)cc2)nc1` [Example 11], the EC50 on progesterone receptor-B [1] was 1.7 nM; on progesterone receptor-B [2], 0.8 nM. The Emax is 56% at progesterone receptor-B [1] (setting [3]) and 35% on progesterone receptor-B [2] (setting [4]).

With `C[C@@H]1C[C@H]2[C@@H]3CCC4=CC(=O)CCC4=C3[C@@H](c3ccc(-c4ccncc4)cc3)C[C@]2(C)[C@H]1C(=O)C1CC1` [Example 12, (11β,16α,17β)-17-cyclopropylcarbonyl-16-methyl-11-[4-(4-pyridinyl)phenyl]estra-4,9-dien-3-one], the values for the EC50 at progesterone receptor-B [1] and on progesterone receptor-B [2] were 4 nM and 2.5 nM, respectively. Moreover, the Emax on progesterone receptor-B [1] (setting [3]) turned out to be 56%; on progesterone receptor-B [2] (setting [4]), 26.5%.

For the compound `C=C[C@@H]1C[C@H]2[C@@H]3CCC4=CC(=O)CCC4=C3[C@@H](c3ccc(-c4cccnc4)cc3)C[C@]2(C)[C@H]1C(=O)C1CC1` [Example 13, (11β,16α,17β)-17-cyclopropylcarbonyl-16-ethenyl-11-[4-(3-pyridinyl)phenyl]estra-4,9-dien-3-one], the results for the EC50 at progesterone receptor-B [1] and at progesterone receptor-B [2] were 0.66 nM and 0.61 nM, respectively. The Emax was determined as 46.8% on progesterone receptor-B [1] (setting [3]) and 38% on progesterone receptor-B [2] (setting [4]).

For the compound `C[C@]12C[C@H](c3ccc(-c4cccnc4)cc3)C3=C4CCC(=O)C=C4CC[C@H]3[C@@H]1C[C@@H](/C=C/c1ccccc1)[C@@H]2C(=O)C1CC1` [Example 14, [11β,16α(E),17β]-17-cyclopropylcarbonyl-16-(2-phenylethenyl)-11-[4-(3-pyridinyl)phenyl]estra-4,9-dien-3-one], the figures for the EC50 at progesterone receptor-B [1] and on progesterone receptor-B [2] were 5.7 nM and 29 nM, respectively. The Emax turned out to be 49.8% at progesterone receptor-B [1] (setting [3]) and 34.5% on progesterone receptor-B [2] (setting [4]).

In the case of `C=C[C@@H]1C[C@H]2[C@@H]3CCC4=CC(=O)CCC4=C3[C@@H](c3ccc(-c4ccc(OC)nc4)cc3)C[C@]2(C)[C@H]1C(=O)C1CC1` [Example 15, (11β,16α,17β)-17-(cyclopropylcarbonyl)-16-ethenyl-11-[4-(6-methoxypyridin-3-yl)phenyl]estra-4,9-dien-3-one], the EC50 at progesterone receptor-B [1] worked out at 0.74 nM; at progesterone receptor-B [2] it was 0.98 nM. In addition, the Emax at progesterone receptor-B [1] (setting [3]) was determined as 41.4%; on progesterone receptor-B [2] (setting [4]), 44.5%.
